Laboratory results reported in publication PMC4821856, “Novel Anti-Campylobacter Compounds Identified Using High Throughput Screening of a Pre-selected Enriched Small Molecules Library” (Frontiers in Microbiology, 2016).
Converted amounts (≈) assume the structure as drawn. Read-outs that look alike come from different tables or passages of the source.

Columns and labels:
C. jejuni 81–176 [1] = test: Minimum bactericidal concentration (MBC); assay type: cell-based, Campylobacter jejuni; conditions: for MBC: Campylobacter jejuni, read-out: C. jejuni MBC (minimum bactericidal concentration)
Experimental: The percentage of C. jejuni growth inhibition was calculated as mentioned previously (De La Fuente et al., [2006]) using the following formula: percentage of inhibition = 100 × (OD negative control–OD test compound)/(OD negative control–OD positive control). Compounds that inhibited Campylobacter growth ≥ 99.0% were selected as primary hits. The culture in wells with ≥ 99% growth inhibition were streaked onto fresh MH agar, as were the sterility, antibiotic and no compound control wells. Bacterial growth was measured on the plate after 48 h at 42°C. Based on the recovery of C. jejuni on MH agar plates, the compound was classified as either “bacteriostatic” or “bactericidal.”
(§1) Minimum inhibitory concentration value not necessarily indicates the killing concentration; therefore, we determined MBC for the top-12 compounds. MBC is defined as the concentration at which 99.9% (below detection limit) of Campylobacter organisms are killed. The MBC for each of these compounds were determined as described previously (Ling et al., [2015]). […] Overall MIC and MBC values were higher for C. coli compared to C. jejuni strain. The MIC and MBC for these 12 compounds for both C. jejuni and C. coli are presented in (Table 1).

C. coli ATCC 33559 [2] = test: Minimum inhibitory concentration (MIC); assay type: cell-based
Experimental: The dose-dependent effect of 35 compounds against the highly pathogenic C. jejuni 81–176 strain was tested. Compounds were two-fold serially diluted (200 to 12.5 μM). One hundred micro liter of the OD600 0.1 adjusted C. jejuni culture was pipetted in to each well of a 96 well plate, treated with 1 μL of diluted compound and the plate was incubated at 42°C under microaerobic conditions for 24 h. Growth inhibition was assessed as above.
(§2) Initially we re-confirmed the efficacy of the 79 resynthesized compounds against C. jejuni 81–176 and C. coli ATCC 33559.
as §1

C. coli ATCC 33559 [3] = test: Minimum bactericidal concentration (MBC); assay type: cell-based, Campylobacter coli; conditions: for MBC: Campylobacter coli
Experimental: as §2, §1

C. jejuni 81–176 [4] = test: Single step resistance assay at lethal dose (5X MIC) on solid media; assay type: cell-based, Campylobacter jejuni; conditions: solid MH agar with 5X MIC, 5 days, 42°C; resistant colonies observed yes/no
Experimental: (§3) Single step and sequential passage resistance assays were performed as described previously with a few modifications (Ling et al., [2015]; Xu et al., [2015]). The top 12 hit compounds were tested in this experiment. The MIC values for each of these 12 compound as determined in above assay was used for C. jejuni resistance studies using lethal (5X MIC) and sub-lethal (0.5X MIC) concentrations.
Campylobacter jejuni grown in MH medium overnight at 42°C was centrifuged at 4700 × g for 10 min at room temperature. The supernatant was discarded and the bacteria were resuspended in MH broth to an OD600 of 1.0 (~1 × 10^9 CFU). Compounds (5X MIC) were mixed with 5 ml of molten MH agar medium and transferred immediately onto small 35 mm petri-plates, agar in the plate was allowed to solidify in the dark. Ten micro liter of culture was transferred to the small molecule containing plates and spread using sterile beads, plates were incubated at 42°C for 5 days in the dark. Bacteria spread on MH agar with 50 μg/mL kanamycin or MH agar alone, were used as positive and negative controls, respectively. After 5 days of incubation, any colonies that developed were assessed for resistance to the test compounds by determining MIC and the MBC as noted above.
(§4) Our rationale for performing the resistance studies was to determine the ability of C. jejuni strain to develop resistance to these compounds when cultured on solid media with a lethal dose (5X MIC) or in liquid media with a sub-lethal dose (0.5X MIC). The presence of resistant colonies in any of these assays would reduce the attractiveness of the relevant small molecule while an absence of resistant colonies would indicate a likely inability of C. jejuni to develop resistance in general. […] Since C. jejuni is the major cause of human campylobacteriosis (95% of the cases); (Butzler, [2004]) and due to limitation of compounds availability, we only performed resistance studies on C. jejuni 81–176. However, for future commercial application of these antimicrobials, more in-depth characterization of potential resistance by other C. jejuni strains and C. coli is warranted.

C. jejuni 81–176 [5] = test: Sequential passage resistance assay at sub-lethal dose (0.5X MIC), 15 passages; assay type: cell-based, Campylobacter jejuni; conditions: liquid MH with 0.5X MIC
Experimental: as §3
Overnight grown C. jejuni 81–176 culture was washed and suspended in MH broth to an OD600 of 0.05 (~10^7 CFU). Five milli liter of the OD adjusted fresh culture was mixed with 0.5X MIC of the relevant test compound (concentration allowing > 50% growth inhibition). Campylobacter jejuni cultured in 20 μg/mL chloramphenicol, or 50 μg/mL kanamycin, or 2% DMSO, or non-amended MH broth were used as controls. The bacteria were incubated at 42°C with shaking at 200 rpm for 24 h in the dark. Following incubation, cultures were centrifuged at 4700 × g for 10 min at room temperature. The supernatant was discarded; bacteria were resuspended in 5 ml of fresh MH containing 0.5X MIC of the same small molecule. This procedure was repeated 14 times. Following 15 passages, bacterial suspensions were assessed for resistance to the test compound by plating on MH media containing 1X MIC of small molecules.
as §4

[6] = concentration at which 99.9% of organisms are killed
[7] = Campylobacter coli, ATCC33559; read-out: C. coli MIC
[8] = ATCC33559, concentration at which 99.9% of organisms are killed, read-out: C. coli MBC
[9] = Campylobacter coli, ATCC33559, read-out: C. coli MIC
[10] = ATCC33559, read-out: C. coli MBC

O=S(=O)(Nc1cccc(C(F)(F)F)c1)c1ccc(Br)cc1 [Comp 1]
MBC relative to MIC for C. jejuni (C. jejuni 81–176 [1]): same as that of their MIC | MBC (C. jejuni 81–176 [1]; [6]): 50 µM (≈ 19 µg/mL) | MIC (C. coli ATCC 33559 [2]; [7]): 50 µM (≈ 19 µg/mL) | MBC relative to MIC for C. coli (C. coli ATCC 33559 [3]): same as that of their MIC | MBC (C. coli ATCC 33559 [3]; [8]): 50 µM (≈ 19 µg/mL) | Resistance, single step 5X MIC (C. jejuni 81–176 [4]): No | Resistance, passage 0.5X MIC (C. jejuni 81–176 [5]): No

COc1ccc(CN2CCN(c3ccc(F)cc3)CC2)cc1C [Comp 2]
MBC relative to MIC for C. jejuni (C. jejuni 81–176 [1]): same as that of their MIC | MBC (C. jejuni 81–176 [1]): 100 µM (≈ 31.4 µg/mL) | MIC (C. coli ATCC 33559 [2]; [9]): 50 µM (≈ 15.7 µg/mL) | MBC relative to MIC for C. coli (C. coli ATCC 33559 [3]): two-fold higher | MBC (C. coli ATCC 33559 [3]; [10]): 100 µM (≈ 31.4 µg/mL) | Resistance, single step 5X MIC (C. jejuni 81–176 [4]): No | Resistance, passage 0.5X MIC (C. jejuni 81–176 [5]): No

CN(C)c1ccc(CN2CCN(c3ccccc3Cl)CC2)cc1 [Comp 3]
MBC relative to MIC for C. jejuni (C. jejuni 81–176 [1]): two-fold higher | MBC (C. jejuni 81–176 [1]): 25 µM (≈ 8.25 µg/mL) | MIC (C. coli ATCC 33559 [2]; [9]): 50 µM (≈ 16.5 µg/mL) | MBC relative to MIC for C. coli (C. coli ATCC 33559 [3]): same as that of their MIC | MBC (C. coli ATCC 33559 [3]; [10]): 50 µM (≈ 16.5 µg/mL) | Resistance, single step 5X MIC (C. jejuni 81–176 [4]): No | Resistance, passage 0.5X MIC (C. jejuni 81–176 [5]): No

Clc1ccc(N2CCN(Cc3ccsc3)CC2)cc1 [Comp 4]
MBC relative to MIC for C. jejuni (C. jejuni 81–176 [1]): same as that of their MIC | MBC (C. jejuni 81–176 [1]; [6]): 50 µM (≈ 14.6 µg/mL) | MIC (C. coli ATCC 33559 [2]; [7]): 50 µM (≈ 14.6 µg/mL) | MBC relative to MIC for C. coli (C. coli ATCC 33559 [3]): two-fold higher | MBC (C. coli ATCC 33559 [3]; [8]): 100 µM (≈ 29.3 µg/mL) | Resistance, single step 5X MIC (C. jejuni 81–176 [4]): No | Resistance, passage 0.5X MIC (C. jejuni 81–176 [5]): No

Cc1ccc(N2CCN(C/C=C/c3ccccc3)CC2)cc1 [Comp 5]
MBC relative to MIC for C. jejuni (C. jejuni 81–176 [1]): same as that of their MIC | MBC (C. jejuni 81–176 [1]; [6]): 50 µM (≈ 14.6 µg/mL) | MIC (C. coli ATCC 33559 [2]; [7]): 50 µM (≈ 14.6 µg/mL) | MBC relative to MIC for C. coli (C. coli ATCC 33559 [3]): same as that of their MIC | MBC (C. coli ATCC 33559 [3]; [8]): 50 µM (≈ 14.6 µg/mL) | Resistance, single step 5X MIC (C. jejuni 81–176 [4]): No | Resistance, passage 0.5X MIC (C. jejuni 81–176 [5]): No

O=c1c(Cl)c(Cl)cnn1-c1ccccc1Cl [Comp 7]
MBC relative to MIC for C. jejuni (C. jejuni 81–176 [1]): same as that of their MIC | MBC (C. jejuni 81–176 [1]; [6]): 12.5 µM (≈ 3.44 µg/mL) | MIC (C. coli ATCC 33559 [2]; [7]): 50 µM (≈ 13.8 µg/mL) | MBC relative to MIC for C. coli (C. coli ATCC 33559 [3]): same as that of their MIC | MBC (C. coli ATCC 33559 [3]; [8]): 50 µM (≈ 13.8 µg/mL) | Resistance, single step 5X MIC (C. jejuni 81–176 [4]): No | Resistance, passage 0.5X MIC (C. jejuni 81–176 [5]): No

Cc1c(C(C)NCc2cccc(OC3CCCC3)c2)cnn1-c1ccccc1 (stereo not drawn) [Comp 10]
MBC relative to MIC for C. jejuni (C. jejuni 81–176 [1]): same as that of their MIC | MBC (C. jejuni 81–176 [1]; [6]): 50 µM (≈ 18.8 µg/mL) | MIC (C. coli ATCC 33559 [2]; [7]): 100 µM (≈ 37.6 µg/mL) | MBC relative to MIC for C. coli (C. coli ATCC 33559 [3]): same as that of their MIC | MBC (C. coli ATCC 33559 [3]; [8]): 100 µM (≈ 37.6 µg/mL) | Resistance, single step 5X MIC (C. jejuni 81–176 [4]): No | Resistance, passage 0.5X MIC (C. jejuni 81–176 [5]): No

COc1ccc(CNCc2ccc(Cl)s2)cc1OCC(O)CN1CCCC1 (stereo not drawn) [Comp 12]
MBC relative to MIC for C. jejuni (C. jejuni 81–176 [1]): same as that of their MIC | MBC (C. jejuni 81–176 [1]; [6]): 100 µM (≈ 41.1 µg/mL) | MIC (C. coli ATCC 33559 [2]; [7]): 50 µM (≈ 20.5 µg/mL) | MBC relative to MIC for C. coli (C. coli ATCC 33559 [3]): two-fold higher | MBC (C. coli ATCC 33559 [3]; [8]): 100 µM (≈ 41.1 µg/mL) | Resistance, single step 5X MIC (C. jejuni 81–176 [4]): No | Resistance, passage 0.5X MIC (C. jejuni 81–176 [5]): No

CN(Cc1cccc2cnccc12)CC1CCCN(CCc2ccc(F)cc2)C1 (stereo not drawn) [Comp 13]
MBC relative to MIC for C. jejuni (C. jejuni 81–176 [1]): two-fold higher | MBC (C. jejuni 81–176 [1]; [6]): 25 µM (≈ 9.79 µg/mL) | MIC (C. coli ATCC 33559 [2]; [7]): 50 µM (≈ 19.6 µg/mL) | MBC relative to MIC for C. coli (C. coli ATCC 33559 [3]): same as that of their MIC | MBC (C. coli ATCC 33559 [3]; [8]): 50 µM (≈ 19.6 µg/mL) | Resistance, single step 5X MIC (C. jejuni 81–176 [4]): No | Resistance, passage 0.5X MIC (C. jejuni 81–176 [5]): No

CN(CC(O)COc1ccccc1CNC1(c2ccccc2)CC1)C1CCCCC1 (stereo not drawn) [Comp 17]
MBC relative to MIC for C. jejuni (C. jejuni 81–176 [1]): two-fold higher | MBC (C. jejuni 81–176 [1]; [6]): 25 µM (≈ 10.2 µg/mL) | MIC (C. coli ATCC 33559 [2]; [7]): 50 µM (≈ 20.4 µg/mL) | MBC relative to MIC for C. coli (C. coli ATCC 33559 [3]): same as that of their MIC | MBC (C. coli ATCC 33559 [3]; [8]): 50 µM (≈ 20.4 µg/mL) | Resistance, single step 5X MIC (C. jejuni 81–176 [4]): No | Resistance, passage 0.5X MIC (C. jejuni 81–176 [5]): No

CN(Cc1ccccc1)CC1CCCN(CCc2ccc(F)cc2)C1 (stereo not drawn) [Comp 18]
MBC relative to MIC for C. jejuni (C. jejuni 81–176 [1]): same as that of their MIC | MBC (C. jejuni 81–176 [1]; [6]): 25 µM (≈ 8.51 µg/mL) | MIC (C. coli ATCC 33559 [2]; [7]): 200 µM (≈ 68.1 µg/mL) | MBC relative to MIC for C. coli (C. coli ATCC 33559 [3]): two-fold higher | MBC (C. coli ATCC 33559 [3]; [8]): > 200 µM | Resistance, single step 5X MIC (C. jejuni 81–176 [4]): No | Resistance, passage 0.5X MIC (C. jejuni 81–176 [5]): No

CC(=O)Nc1ccc(CN(C)CC2CCCN(CCc3cccc(C(F)(F)F)c3)C2)cc1 (stereo not drawn) [Comp 22]
MBC relative to MIC for C. jejuni (C. jejuni 81–176 [1]): two-fold higher | MBC (C. jejuni 81–176 [1]; [6]): 25 µM (≈ 11.2 µg/mL) | MIC (C. coli ATCC 33559 [2]; [7]): 100 µM (≈ 44.8 µg/mL) | MBC relative to MIC for C. coli (C. coli ATCC 33559 [3]): same as that of their MIC | MBC (C. coli ATCC 33559 [3]; [8]): 100 µM (≈ 44.8 µg/mL) | Resistance, single step 5X MIC (C. jejuni 81–176 [4]): No | Resistance, passage 0.5X MIC (C. jejuni 81–176 [5]): No
